The values below come from patent US11684660B2, “Human PD1 peptide vaccines and uses thereof” (OHIO STATE INNOVATION FOUNDATION, priority 2017, dated 2023).

For this test, the system named is murine colon carcinoma CT26 tumor cells. Kind of test: CT26 tumor challenge in Balb/c mice immunized with PD-1 constructs. It counts as in vivo. The method, then:
Immunocompetent Balb/c mice of 6-8 weeks of age were purchased from Charles River Laboratories, Wilmington, Mass. and housed in The Ohio State University's University Laboratory Animal Resources (ULAR) facilitates. Isoflurane was used to anaesthetize the animals before cells injection and termination. Pre-immune sera samples were taken from the mice then they were immunized with 100 μg of peptide emulsified in Montanide ISA 720 (Seppic, Paris, France) and nor-MDP adjuvant (N-acetyl-glucosamine-3 yl-acetyl L-alanyl-D-isoglutamine). Mice received booster immunizations 3 and 6 weeks after the first. Several test sera samples were taken from the mice (FIG. 8).
10 days after the second boost, mice were inoculated with […] murine colon carcinoma CT26 tumor cells subcutaneous on the right flank. Tumor growth was monitored three times a week and sera samples were taken weekly and upon sacrifice of the animal. Control mice on day 0 were engrated with 1×10^5 CT26 tumor cells subcutaneous and received. The animals received 150 μg injections of anti-mouse antibodies directed against PD-1. Mice were monitored and scored for the formation of palpable tumors twice weekly and sacrificed if tumors became necrotic or exceeded the predetermined size of 2,000 mm3. Tumor diameters were measured twice a week. Tumor size was calculated according to the formula: V=[(length ×width2)/2]. Tumor volumes were measured in cubic millimeters with calipers and calculated with the following formula: A×B2×0.5, where A is the largest diameter, and B is the smallest diameter. All experiments were performed in accordance with the U.S. Public Health Service Policy on Humane Care and Use of Laboratory Animals and approved by the Ohio State University Institutional Animals Care and Use Committee and detailed in the accepted protocol
To assess performance of 4 different vaccine treatments on tumor growth, tumor size was measured periodically in mice, and the results were compared to those of positive and negative controls. There were 5 mice in each treatment group, each receiving the assigned MVF-peptide and then being inoculated with 1e5 CT26 (colon) tumor cells 10 days after the final boost of the treatment. Day 14 was considered the primary time point of interest, as the investigators believed waiting until day 19 allowed the tumors too much time to grow, resulting in similar sizes at that point of the experiment. Tumor size was measured in three ways: LWW (½*length*width*width) at all time points, LWH (½*length*width*height) at all time points, and terminal tumor weight at the end of the study. The mice treated with MVF-PD-a(45), group C, were sacrificed before day 19 due to the death of one mouse, so the comparisons can only be made between tumor size at day 14. Tumor size is in units of mm3 for LWW and LWH and grams for terminal tumor weight.
Due to small sample sizes in each group and inability to assume normality, the exact Wilcoxon rank-sum test was used to check for systematic differences between the distributions of tumor size at times 14 days and 19 days (FIGS. 12A-D and Tables 7-10). P-values given are for test comparing that column's control to the respective treatment, and are two-sided to account for the possibility of tumor size being systematically larger or smaller between treatment and control. As this is preliminary data, the p-values are not adjusted for multiple comparisons. Overall, there were few instances of significant differences between the distributions of a control and a treatment.
Immunocompetent Balb/c mice (5 mice/gp) of 6-8 weeks of age were immunized with 100 μg of peptide emulsified in Montanide ISA 720 (Seppic, Paris, France) and nor-MDP adjuvant (N-acetyl-glucosamine-3 yl-acetyl L-alanyl-D-isoglutamine). […]

No end group written: not given here.

“KLLSLIKGVIVHRLEGVE-GPSL-GAISLAPKAQIKESLRAEL-CONH2 (KLLSLIKGVIVHRLEGVEGPSLGAISLAPKAQIKESLRAEL-NH2) [MVF-PD-1 (92-110)]”: under “Day 14, FIG. 15”, the “inhibition of tumor growth” value was “significant inhibition of tumor growth”. The “median terminal tumor weight” value (end of study, 5 mice/group) is on record as 1.1 grams. In addition, the “difference in tumor size distribution versus controls” value (exact Wilcoxon rank-sum test, two-sided, unadjusted) is “systematically smaller tumor sizes than the positive control”. For the same substance, for the setting “median, 5 mice/group”, the “median tumor size LWH, Day 19” value stood at 819 mm3 and the “median tumor size LWW, Day 19” value is on record as 1080 mm3. Moreover, the “median tumor size LWH, Day 14” value (median, 5 mice/group, ½*length*width*height) came out at 270 mm3. In addition, the “median tumor size LWW, Day 14” value (median, 5 mice/group, ½*length*width*width) is given as 384 mm3.
